Experimental data published in patent US20120142028A1, “[…] […] ANTI-CANCER RESPONSE TO EPIDERMAL GROWTH FACTOR RECEPTOR KINASE INHIBITORS” (OSI Pharmaceuticals, LLC, priority 2009, published 2012).
Values joined by “and” are separate entries in the source; they are usually repeats but may differ in a detail not shown here. Equal entries are not always repeated. “Also recorded” adds a separate entry of the source.

Test system: patients who had had progression after standard chemotherapy for non-small-cell lung cancer
Assay: NCIC CTG BR.21 Phase 3 trial of TARCEVA vs placebo; survival and PFS by tumor E-cadherin/vimentin IHC status
Type: in vivo, human
Details: for Hazard Ratio (H/L) (95% CI) / Median Survival / Median PFS: Erlotinib arm; for Hazard Ratio (95% CI): Erlotinib vs. Placebo; for Median PFS: progression free survival
Protocol: The NCIC CTG. BR.21 study was a Phase 3 trial of TARCEVA® involving patients who had had progression after standard chemotherapy for non-small-cell lung cancer (i.e. 2nd and 3rd line NSCLC; Shepherd F A, et al. N Engl. J. Med 2005; 353:123-132.). Patients were randomly assigned in a 2:1 ratio to receive 150 mg of TARCEVA® (erlotinib HCl) daily or placebo. The primary end point was overall survival. Progression free survival and response were secondary end points. Separate written consent was obtained for optional tissue banking and correlative studies.
Because the BR21 trial is one of the few TARCEVA® clinical trials that includes a large number of patients and an untreated placebo group, it is optimally designed to evaluate the predictive and prognostic potential of biomarkers. As such, the potential of vimentin and E-cadherin protein expression to serve as a predictive biomarker for overall survival and […] was assessed using remaining tumor samples from the BR21 study. IHC analysis of tumor tissue samples received from NCIC was used to determine E-Cadherin and vimentin protein expression. Sensitivity analyses were performed to determine optimal cut points for E-Cadherin and vimentin staining for classification of E-Cadherin and vimentin as “High” or “Low” for use as prognostic and/or predictive markers for survival and progression-free survival. Further analyses were performed to evaluate possible correlations of biomarker status with clinical outcomes of survival, progression-free survival, response and disease control.
Stained slides were scored by an experienced pathologist. Slides were first evaluated for quality of tissue and quality of staining Acceptable slides were then evaluated, with the pathologist generating an ‘H-1-score’ based on a subjective interpretation of the staining intensity of the chromagen labeled antibody. Four intensity levels were used in scoring the stained sections: 0 for no staining, +1 for weak or minimal staining, +2 for moderate staining, and +3 for strong staining. The relative percentage of total target cells expressing an intensity level is recorded as data.
Treatment groups as randomized (ITT population) were analyzed using all patients with evaluable tissue. Disease progression as assessed by the investigator was used for PFS (Progression Free Survival) analysis. Potential predictive benefit of E-Cadherin or vimentin expression was assessed by comparing trends in the hazard ratios. No treatments by biomarker interaction tests were performed. Three Scoring Methods were used for E-Cadherin and Vimentin: • 1. % Any Staining of tumor cells • 2. % of tumor cell Staining of Intensity +2 or +3 • 3. Composite Score Example: A sample read as 5% unstained, 35% staining of intensity +1, 45% staining of intensity +2, and 15% staining of intensity +3, would be scored as follows: • 95% any staining • 60% staining of intensity +2 or +3 • 0(5)+1(35)+2(45)+3(15)=Composite Score of 170 Overall survival is defined as the time from the study treatment start date to the date of death. If the patient receives the study treatment but the patient is still alive or a death date is unavailable, overall survival is calculated as the difference between the study treatment start date and the last date the patient was known to be alive. […] Progression free survival (PFS) is defined as the time from the study treatment start date to the documentation date of disease progression or the death date. As with overall survival, if no progression/death date is available, the PFS is calculated as the time from the study treatment start date to the last documented tumor assessment date, and is noted to be “censored”.
Table 6 illustrates the numbers of patients in each treatment arm who were E-Cadherin high vs. low, and vimentin high vs. low for the subset of patients for whom E-Cadherin and vimentin results were available (N=95). P-values are determined from univariate Kaplan-Meier analyses. […]

[1] = overall survival, E-Cadherin High
[2] = overall survival, E-Cadherin Low
[3] = overall survival, E-Cadherin/Vimentin High/High
[4] = overall survival, E-Cadherin/Vimentin High/Low
[5] = overall survival, E-Cadherin/Vimentin Low/High
[6] = overall survival, E-Cadherin/Vimentin Low/Low
[7] = overall survival, Patients with Known E-Cadherin Results
[8] = overall survival, Patients with Known Vimentin Results
[9] = overall survival, Vimentin High

Compound: C#Cc1cccc(Nc2ncnc3cc(OCCOC)c(OCCOC)cc23)c1 [Erlotinib, [6,7-bis(2-methoxyethoxy)-4-quinazolin-4-yl]-(3-ethynylphenyl)amine]
- Kaplan-Meier overall survival, Erlotinib arm compared to Placebo arm (E-Cadherin high subset (FIG. 3)): more favorable
- Kaplan-Meier progression free survival, Erlotinib arm compared to Placebo arm (E-Cadherin high subset (FIG. 4)): more favorable
- Kaplan-Meier overall survival, Erlotinib arm compared to Placebo arm (E-Cadherin low subset (FIG. 3)): switched in direction but smaller in magnitude
- Kaplan-Meier progression free survival, Erlotinib arm compared to Placebo arm (E-Cadherin low subset (FIG. 4)): switched in direction but smaller in magnitude
- Kaplan-Meier overall survival, E-Cadherin high subset compared to E-Cadherin low subset (Erlotinib arm (FIG. 3)): more favorable
- Kaplan-Meier progression free survival, E-Cadherin high subset compared to E-Cadherin low subset (Erlotinib arm (FIG. 4)): more favorable
- Kaplan-Meier overall survival, vimentin high subset compared to vimentin low subset (Erlotinib arm (FIG. 5)): more favorable; also recorded: longer
- Kaplan-Meier progression free survival, vimentin high subset compared to vimentin low subset (Erlotinib arm (FIG. 6)): more favorable; also recorded: longer
- Hazard Ratio (H/L) (95% CI) (PFS, E-Cadherin High vs. E-Cadherin Low (cut-point 40% staining of intensity +2 or +3)): 0.571 and 0.57
- Hazard Ratio (H/L) (95% CI) (PFS, Vimentin High vs. Vimentin Low): 0.43
- Hazard Ratio (95% CI) (PFS, All Patients): 0.64
- Hazard Ratio (95% CI) (PFS, E-Cadherin High): 0.52
- Hazard Ratio (95% CI) (PFS, E-Cadherin Low): 1.18
- Hazard Ratio (95% CI) (PFS, E-Cadherin/Vimentin High/High): 0.235
- Hazard Ratio (95% CI) (PFS, E-Cadherin/Vimentin High/Low): 0.73
- Hazard Ratio (95% CI) (PFS, E-Cadherin/Vimentin Low/High): 0.24
- Hazard Ratio (95% CI) (PFS, E-Cadherin/Vimentin Low/Low): 2.75
- Hazard Ratio (95% CI) (PFS, Patients with Known E-Cadherin Results): 0.72
- Hazard Ratio (95% CI) (PFS, Patients with Known Vimentin Results): 0.72
- Hazard Ratio (95% CI) (PFS, Vimentin High): 0.28
- Hazard Ratio (95% CI) (PFS, Vimentin Low): 1.11
- Median Survival (overall survival, All Patients): 6.67 Months
- Median Survival [1]: 11.3 Months
- Hazard Ratio (H/L) (95% CI) (overall survival, E-Cadherin High vs. E-Cadherin Low (cut-point 40% staining of intensity +2 or +3)): 0.682 and 0.68
- Median Survival [2]: 4.86 Months
- Median Survival [3]: 10.38 Months
- Median Survival [4]: 12.06 Months
- Median Survival [5]: 10.7 Months
- Median Survival [6]: 4.81 Months
- Median Survival [7]: 8.44 Months
- Median Survival [8]: 8.44 Months
- Median Survival [9]: 10.55 Months
- Hazard Ratio (H/L) (95% CI) (overall survival, Vimentin High vs. Vimentin Low): 0.65
- Median Survival (overall survival, Vimentin Low): 6.11 Months
- Hazard Ratio (95% CI) (overall survival, All Patients): 0.76
- Hazard Ratio (95% CI) [1]: 0.47
- Hazard Ratio (95% CI) [2]: 1.12
- Hazard Ratio (95% CI) [3]: 0.31
- Hazard Ratio (95% CI) [4]: 0.57
- Hazard Ratio (95% CI) [5]: 0.26
- Hazard Ratio (95% CI) [6]: 2.44
- Hazard Ratio (95% CI) [7]: 0.69
- Hazard Ratio (95% CI) [8]: 0.69
- Hazard Ratio (95% CI) [9]: 0.26
- Hazard Ratio (95% CI) (overall survival, Vimentin Low): 0.99
- Median PFS (All Patients): 2.23 Months
- Median PFS (E-Cadherin High): 3.68 Months
- Median PFS (E-Cadherin Low): 1.97 Months
- Median PFS (E-Cadherin/Vimentin High/High): 8.02 Months
- Median PFS (E-Cadherin/Vimentin High/Low): 2.66 Months
- Median PFS (E-Cadherin/Vimentin Low/High): 3.61 Months
- Median PFS (E-Cadherin/Vimentin Low/Low): 1.69 Months
- Median PFS (Patients with Known E-Cadherin Results): 2.38 Months
- Median PFS (Patients with Known Vimentin Results): 2.38 Months
- Median PFS (Vimentin High): 5.39 Months
- Median PFS (Vimentin Low): 2.18 Months
- survival when treated with TARCEVA (subset of treated patients with high E-cadherin expression): longer survival
- survival when treated with TARCEVA (subset of treated patients with high vimentin expression): significantly longer survival
- Kaplan-Meier overall survival, Erlotinib arm compared to Placebo arm (vimentin high subset (FIG. 5)): more favorable
- Kaplan-Meier progression free survival, Erlotinib arm compared to Placebo arm (vimentin high subset (FIG. 6)): more favorable
- Kaplan-Meier overall survival, Erlotinib arm compared to Placebo arm (vimentin low subset (FIG. 5)): no difference
- Kaplan-Meier progression free survival, Erlotinib arm compared to Placebo arm (vimentin low subset (FIG. 6)): no difference
